Assays:
[1] = set-up: method as in Narasimhan et al., 2013; conditions: ref Narasimhan et al., 2013, cited from earlier work
[2] = WT mice treated with TCDD versus vehicle
in vivo [3] = conditions: for Cmax / half-life: male, hCYP1A1/1A2 humanized, mouse, in vivo, po, 40 mg/kg, ponatinib 40 mg/kg oral gavage; for Cmax: hCYP1A1/1A2 mice; for half-life: t1/2, hCYP1A1/1A2 mice
Protocol: All animal work was carried out on 8- to 12-week-old male mice. 3-Methylcholanthrene (3-MC) was suspended in corn oil at 4 mg/ml for administration by intraperitoneal injection at 40 mg/kg (10 μl/g body weight) daily for 3 days for hCYP1A1/2 mice. TCDD was suspended in corn oil at 1 µg/ml for administration by intraperitoneal injection at 10 µg/kg (10 μl/g body weight) daily for 3 days for wild-type (WT) mice. […] For blood sample collection, 10 μl of whole blood was withdrawn from the tail vein at the indicated time points. Samples were immediately added to a tube containing heparin solution (10 μl, 15 IU/ml), put into liquid nitrogen, and then stored at −80°C until processing. On the day of analysis, acetonitrile (80 µl containing 200 ng/ml triazolam) was added to thawed samples, which were shaken for 15 minutes, centrifuged for 10 minutes at 16,000g, and analyzed. […] An aliquot of 0.25 g was extracted with 1 ml of 80% methanol for 30 minutes on a vortex evaporator (Labconco, Kansas City, MO). After centrifugation (30 minutes at 4000g), the solvent of a 800 μl aliquot of the supernatant was removed by speed vacuum, followed by reconstitution in 500 μl methanol and water (50/50, v/v), and analyzed by LC-MRM.
Analysis of in vitro incubation and in vivo blood PK samples was carried out by ultra-performance LC-MS/MS using the Waters Acquity UPLC (Micromass, Manchester, United Kingdom) and Micromass Quattro Premier Mass Spectrometer with electrospray ionization. The chromatography was performed using a C18 column (Kinetex 1.7 µ 100 A; 50 × 2.1 mm; Phenomenex, Macclesfield, United Kingdom) at a temperature of 45°C with mobile phases of 0.1% formic acid (A) and acetonitrile and 0.1% formic acid (B). A gradient at a flow rate of 0.5 ml/min was run over 3 minutes as follows: 0–0.5 minutes, 95% A; 0.5–0.75 minutes, 95%–67.5% A; 0.75–1.50 minutes, 67.5% A, 1.50–2.00 minutes, 67.5%–50% A; 2.00–2.50 minutes, 50%–5% A; and then returning to the initial conditions for a final 0.5 minutes. The cone voltage and collision energy were optimized for each substrate and MRM data were acquired (Supplemental Table 1).
In the present study, the absolute concentrations of the metabolites in the incubation mixture could not be determined because of the lack of authentic standards. Therefore, the relative activity of the P450s was presented by comparing the concentration of the metabolite in a sample with the concentration of the same metabolite in the sample that had the highest response under the same experimental condition ([Yu et al., 2010]). The relative activity of the P450s toward metabolite formation could be calculated according to the ratio of the metabolite concentration to that in the sample with highest mass response. The PK parameters of in vivo data were calculated with a simple noncompartmental model using the WinNonLin software, version 4.1 (Pharsight (Certara, Cambridge, UK)) and are shown with the S.D. values. The P values were calculated using an unpaired t test; *P < 0.05, **P < 0.01, ***P < 0.001.

in vivo [4] = conditions: male, mouse, plasma, po, 40 mg/kg, ponatinib 40 mg/kg oral gavage; for Cmax: WT mice
[5] = cited from earlier work
[6] = concurrent therapy with ketoconazole (a CYP3A4 inhibitor), ref Narasimhan et al., 2013; cited from earlier work
mGstp1 = target: T1, mGstp1 (Mus musculus, UniProt P19157); assay: Protein adducts of ponatinib with mGstp1 in the presence of human recombinant CYP1A1 (LC-MS/MS of tryptic digests); format: in vitro ADME; conditions: ponatinib 50 µM, CYP1A1, 10 µg/ml mGstp1, 80 minutes
T1 construct: made in house
T1 sequence (P19157 2-210 limits assumed): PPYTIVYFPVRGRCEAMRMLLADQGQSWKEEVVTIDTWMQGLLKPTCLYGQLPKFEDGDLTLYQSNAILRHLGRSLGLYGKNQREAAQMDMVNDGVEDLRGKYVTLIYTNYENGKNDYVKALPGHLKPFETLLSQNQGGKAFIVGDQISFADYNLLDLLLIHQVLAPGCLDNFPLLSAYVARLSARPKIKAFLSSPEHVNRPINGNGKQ
Protocol: The incubation was started by the addition of a NADPH-regenerating system (final concentration: 1.3 mM NADPH, 4 mM glucose-6-phosophate, 2 U/ml glucose-6-phosphate dehydrogenase, and 3.3 mM […]) and allowed to proceed at 37°C for 80 minutes. The reaction was terminated by cooling on ice, and the E. coli membrane containing human recombinant CYP1A1 was removed by ultracentrifugation at 41,000g at 4°C for 80 minutes. […] The solvent was exchanged to 50 mM ammonium bicarbonate and further concentrated to 100 µl.
Aliquots of the solution (10 µl) were mixed with 10 μl of 4× NuPAGE lithium dodecyl sulfate loading buffer (Invitrogen, Carsbad, CA) by incubation at 95°C for 5 minutes and then subjected to SDS-PAGE on a NuPAGE Novex 10% Bis-Tris mini gel (Invitrogen NP0341BOX). After electrophoresis at a constant 180 V for 30 minutes, gels were stained with Coomassie Blue. Bands (20–25 kDa) containing mGstp1 were cut from the gel, and after removing the Coomassie Blue from the gel by adding 100 mM ammonium bicarbonate/acetonitrile (1:1, v/v) and subsequently dehydrating with 100% acetonitrile, the solvent was removed from the gel pieces under vacuum. The residue was resuspended in 0.01 μg/μl MS grade trypsin (Promega, Madison, WI) in 25 mM ammonium bicarbonate and incubated at 37°C overnight. […]

[7] = tested on: human recombinant P450 enzymes; assay: Ponatinib biotransformation by panel of 11 human recombinant P450 enzymes; format: in vitro ADME; conditions: ponatinib 50 µM, P450 100 nM, panel of 11 enzymes
Protocol: All incubations were performed at 37°C and 300 rpm in a thermomixer. Human cDNA-expressed P450 isoenzymes coexpressed with human NADPH P450 oxidoreductase (see Supplemental Fig. 1 for CYP:oxidoreductase ratio data) were carefully thawed on ice prior to the experiment. […] After 5-minute preincubation at 37°C, the incubation reactions were initiated by addition of a NADPH regenerating system (final concentration: 1.3 mM NADPH, 4 mM glucose-6-phosphate, and 2 unit/ml glucose-6-phosphate dehydrogenase). After 5–120 minutes, an aliquot of 100 µl of reaction mixture was quenched with same volume of cold acetonitrile containing 400 ng/ml of triazolam as the internal standard. […] An aliquot of the supernatant fraction was analyzed by liquid chromatography (LC)–tandem mass spectrometry (MS), i.e., LC-MS/MS. […]
In the present study, the absolute concentrations of the metabolites in the incubation mixture could not be determined because of the lack of authentic standards. […] The relative activity of the P450s toward metabolite formation could be calculated according to the ratio of the metabolite concentration to that in the sample with highest mass response. The PK parameters of in vivo data were calculated with a simple noncompartmental model using the WinNonLin software, version 4.1 (Pharsight (Certara, Cambridge, UK)) and are shown with the S.D. values. […]

[8] = human; cited from earlier work
[9] = hCYP1A1/1A2 mice treated with 3-MC versus vehicle
[10] = 3-MC pretreatment (40 mg/kg i.p. daily for 3 days)
[11] = ponatinib treatment, ref Cortes et al., 2012

SMILES: Cc1ccc(C(=O)O)cc1C#Cc1cnc2cccnn12 [AP24600]
- activity of metabolite ([1]; esterase/amidase product): inactive

SMILES: Cc1ccc(C(=O)Nc2ccc(CN3CCNCC3)c(C(F)(F)F)c2)cc1C#Cc1cnc2cccnn12 [N-desmethyl]
- potency relative to ponatinib (fold less potent) [1]: 4 fold

SMILES: Cc1ccc(C(=O)Nc2ccc(CN3CCN(C)CC3)c(C(F)(F)F)c2)cc1C#Cc1cnc2cccnn12 [ponatinib, 3-[2-(imidazo[1,2-b]pyridazin-3-yl)ethynyl]-4-methyl-N-4-[(4-methylpiperazin-1-yl)methyl]-3-(trifluoromethyl)phenylbenzamide]
- decrease in the ponatinib half-life [2]: 62%
- reduction in the AUC0–8 hours value [2]: 87%
- reduction in AUC0–8 hours (in vivo [3]; [9]): 54%
- reduction in half-life (in vivo [3]; [9]): 67%
- Cmax (in vivo [3]; [10]): 620 ± 245 ng/mL
- Cmax (in vivo [3]; vehicle pretreatment): 705 ± 96 ng/mL
- half-life (in vivo [3]; [10]): 4.6 ± 0.8 h
- half-life (in vivo [3]; vehicle pretreatment): 13.9 ± 1.7 h
- Cmax (in vivo [4]; TCDD pretreatment (10 µg/kg i.p. daily for 3 days)): 253 ± 42 ng/mL
- Cmax (in vivo [4]; vehicle pretreatment): 1210 ng/mL
- half-life (in vivo [4]; t1/2, WT mice, vehicle pretreatment): 6.2 ± 0.2 h
- alanine aminotransferase elevation, patients in clinical trials ([5]; clinical trials): 10.5%
- aspartate aminotransferase elevation, patients in clinical trials ([5]; clinical trials): 8.2%
- neutropenia, patients [5, 11]: 19%
- thrombocytopenia, patients [5, 11]: 37%
- change of ponatinib AUC0–∞, AUC0–t and Cmax values [6]: significantly increased
- covalent ponatinib adducts on mGstp1 cysteine residues (mGstp1): ponatinib-Gstp adducts had been formed on Cys-14 and Cys-47
- P450 enzymes metabolizing ponatinib, disappearance of the parent drug [7]: principally metabolized via CYP3A4 and CYP1A1
- plasma half-life (t1/2) [8]: ~24 h

From paper PMC5596814 (The Journal of Pharmacology and Experimental Therapeutics, 2017)
